Reference: PubChem BioAssay (NCI)
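A five-concentration, 48-hour dose response in 96-well plates underlies each endpoint, interpolated linearly between surrounding concentrations. TGI is the concentration that stops growth completely.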

Legend:
Assay in all cases: DTP human tumour cell line panel, 48 h
ACHN renal = test system: ACHN renal
CCRF-CEM leukemia = test system: CCRF-CEM leukemia
DU-145 prostate = test system: DU-145 prostate
HOP-92 NSCLC = test system: HOP-92 NSCLC
HT29 colon = test system: HT29 colon
KM12 colon = test system: KM12 colon
NCI-H460 lung = test system: NCI-H460 lung
SF-268 CNS = test system: SF-268 CNS
SF-539 CNS = test system: SF-539 CNS
TK-10 renal = test system: TK-10 renal

Structure (SMILES)	TGI (ACHN renal)	TGI (CCRF-CEM leukemia)	TGI (DU-145 prostate)	TGI (HOP-92 NSCLC)	TGI (HT29 colon)	TGI (KM12 colon)	TGI (NCI-H460 lung)	TGI (SF-268 CNS)	TGI (SF-539 CNS)	TGI (TK-10 renal)
Cc1ccc2nc(-c3ccc(N4C(=O)C(Cl)C4c4ccc(Cl)cc4)cc3)sc2c1 (configuration not stated)	50.7 µM	36.7 µM	> 100 µM	18.9 µM	4.02 µM	> 100 µM	46.2 µM	68 µM	35.3 µM	38.1 µM
CCOC(=O)CC(=O)Nc1cccc2[nH]cnc12	> 100 µM	> 100 µM	> 100 µM	> 100 µM	> 100 µM	> 100 µM	> 100 µM	> 100 µM	> 100 µM	
CC(C)C(/C=C/c1ccc(Cl)c(Cl)c1)=N\NC(=O)N/N=C(/C=C/c1ccc(Cl)c(Cl)c1)C(C)C	> 100 µM	> 100 µM	> 100 µM	> 100 µM	> 100 µM	> 100 µM	> 100 µM	> 100 µM	> 100 µM	> 100 µM
CCOP(=O)(OCC)C(C#N)Cc1ccco1 (configuration not stated)	> 10 µM	> 10 µM	> 10 µM	> 10 µM	> 10 µM	> 10 µM	> 10 µM	> 10 µM	> 10 µM	> 10 µM
O=c1c(=O)c2c(Br)sc(Br)c2c1=O	44.7 µM		> 100 µM	33 µM	57.4 µM	> 100 µM	> 100 µM	> 100 µM	35.3 µM	47.7 µM
CCOC(=O)/C(C#N)=C/c1ccnc2ccccc12	> 100 µM		> 100 µM	> 100 µM	> 100 µM	> 100 µM	> 100 µM	> 100 µM	50 µM	> 100 µM
FC(F)(F)c1cccc(-c2nc3ccccc3c3c2[C@@]2(N4CCCC4)CCCC[C@@H]32)c1		87.9 µM	> 100 µM	55.2 µM	> 100 µM	> 100 µM	> 100 µM	> 100 µM	> 100 µM	89.8 µM
C[N+]1(CCCl)CC[N+](C)(CCCl)CC1 (configuration not stated)	> 100 µM	> 100 µM	> 100 µM		> 100 µM	> 100 µM	> 100 µM	> 100 µM	> 100 µM	> 100 µM
CC[C@H]1C=CCC[C@@]2(C[C@@H]3CC[C@H]4[C@@H](C(=O)OCCCCCCCCCCCCCCCC(=O)N(CCCN)C[C@@H](O)CCN)[C@@]5(CCC[C@@H](C)O5)NC(=[N+]34)N2)O1	> 10 µM		3.61 µM	4.1 µM	2.96 µM	2.91 µM	3.36 µM	3.45 µM	2.78 µM	3.04 µM
O=C1c2cc(Cl)ccc2NC(=NCCCl)C2CSCN12 (configuration not stated)	> 100 µM	> 100 µM	> 100 µM		> 100 µM	> 100 µM	> 100 µM	> 100 µM		> 100 µM
Cc1noc(NC2=CC(=O)C(=O)c3ccccc32)c1C	> 100 µM		> 100 µM	78.1 µM	88 µM	32.7 µM	> 100 µM	> 100 µM	14.1 µM	> 100 µM
CC(=O)OC1COC(Nc2nc(NCc3ccccc3)n(C)c(=O)c2N=O)C(OC(C)=O)C1OC(C)=O (configuration not stated)	> 10 µM	> 10 µM	> 10 µM		> 10 µM	> 10 µM	> 10 µM	> 10 µM	> 10 µM	> 10 µM
C=C1C(=O)O[C@@H]2C=C(C)C3=CC(=O)[C@](C)(C[C@H](OC(=O)/C(C)=C\C)[C@@H]12)O3	3 µM	0.82 µM	15.8 µM	2.18 µM	2.73 µM	2.99 µM	7.73 µM		6.09 µM	2.19 µM
N#Cc1c(-c2ccccc2)c(N=Nc2ccc(Cl)cc2)c(=O)n2c1[nH]c1ccccc12	> 100 µM	> 100 µM				> 100 µM	> 100 µM	> 100 µM	> 100 µM	> 100 µM
CN(C)C(=O)OC(Cn1cncn1)(Cn1cncn1)c1ccc(Cl)cc1Cl		> 100 µM	> 100 µM	> 100 µM	> 100 µM	> 100 µM	> 100 µM	> 100 µM	> 100 µM	> 100 µM
COc1cc2cc(C(=O)N3CC(CCl)c4c3cc(N)c3ccccc43)[nH]c2c(OC)c1OC (configuration not stated)	0.108 µM	< 0.01 µM	0.0549 µM	0.275 µM	1.41 µM	0.0207 µM		< 0.01 µM		2.32 µM
Cc1csc(/N=C\c2c(O)c3ccccc3oc2=O)n1	> 100 µM	> 100 µM	> 100 µM	89.8 µM	> 100 µM	> 100 µM		> 100 µM	> 100 µM	77.8 µM
Cc1ccc2oc(=O)c(C(=O)Nc3nc(C45CC6CC(CC(C6)C4)C5)cs3)cc2c1	> 100 µM	> 100 µM	> 100 µM	> 100 µM	> 100 µM	> 100 µM	> 100 µM	> 100 µM	> 100 µM	
COc1ccc(N2C=Nn3c(nc4sc5c(c4c3=O)CCCC5)C2)cc1	53.2 µM	> 100 µM	> 100 µM	41.8 µM	> 100 µM	> 100 µM	> 100 µM	> 100 µM		> 100 µM
C=C1C(=O)O[C@H]2[C@@H](O)[C@H](C)CCC[C@]3(C)O[C@H]3CC[C@@]3(C)O[C@@H]3C[C@@H]12		5.22 µM	12.9 µM		12.1 µM	15.3 µM		14.9 µM	13.3 µM	
COC(=O)[C@H](Cc1c[nH]c2ccccc12)NC(=O)c1ccc(CNC(=O)/C=C/c2cccc(Oc3ccccc3)c2)cc1	> 100 µM	> 100 µM	> 100 µM	> 100 µM	> 100 µM	> 100 µM	> 100 µM	> 100 µM		> 100 µM
O=C(O)Cc1ccc2[nH]c(O)c(C3=Nc4ccccc4C3=O)c2c1	> 100 µM	> 100 µM	> 100 µM		> 100 µM	> 100 µM	> 100 µM	> 100 µM		> 100 µM
O=C1CC(c2cccc(Br)c2)n2cccc21 (configuration not stated)	> 100 µM	> 100 µM	> 100 µM	> 100 µM	> 100 µM	> 100 µM		> 100 µM	> 100 µM	> 100 µM
